Values quoted from earlier work as cited in US20160317408A1, “KERATIN FIBRE DYEING METHOD” (ALFA PARF GROUP S.p.A., priority 2015, published 2016).

Tests used:
[1] = SCCS Opinion 1509/13, Memorandum on hair dye chemical sensitisation
[2] = value assigned from SCCS memorandum class; composition containing the dye

For Nc1ccc(NCCO)cc1 [hydroxyethyl-p-phenylenediamine], the sensitising power classification [1] is given as “Strong”.
In the case of Oc1ccc(Cl)c(O)c1 [4-chlororesorcinol], the “individual sensitisation index value of the dye” value [2] is listed as 2 and the sensitising power classification [1] is listed as “Moderate”.
For Nc1ccc(N(CCO)CCO)cc1 [N,N-bis(2-hydroxyethyl)-p-phenylenediamine], the “individual sensitisation index value of the dye” value [2] is given as 1 and the sensitising power classification [1] is given as “Strong”.
For Oc1cccc(O)c1 [resorcinol], the sensitising power classification [1] is given as “Strong”.
In the case of Nc1ccc(OCCO)c(N)c1 [2,4-diaminophenoxyethanol], the “individual sensitisation index value of the dye” value [2] is given as 2 and the sensitising power classification [1] is given as “Moderate”.
In the case of Nc1ncccc1O [2-Amino-3-hydroxypyridine], the sensitising power classification [1] is listed as “not classifiable”.
For Cc1c(O)cccc1O [2-methylresorcinol], the “individual sensitisation index value of the dye” value [2] is given as 2 and the sensitising power classification [1] is given as “Moderate”.
In the case of Nc1ccc(N)cc1 [p-phenylenediamine], the “individual sensitisation index value of the dye” value [2] is given as 0 and the sensitising power classification [1] is given as “Extreme”.
